The values that follow come from paper PMC7954794, “Protein context shapes the specificity of SH3 domain-mediated interactions in vivo” (Nature Communications, 2021).

For the test, the system named is 575 putative partners (preys) of 22 WT SH3-containing proteins. Kind of test: DHFR-PCA on solid medium, WT and SH3-deleted baits (Fig. 1B). Type of test: cell-based, Saccharomyces cerevisiae. Also noted: key to Score: 0: SH3-independent; 1: SH3-dependent PPIs; 2: SH3-inhibited PPIs. The conditions noted are these: for SH3-dependent PPIs: number of PPIs, SH3 domain in its own protein, DHFR-PCA, Fig2D,S2F. The essentials:
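Interactions scored by DHFR protein-fragment complementation on solid medium using robotic pinning; preys (DHFR F[3] fusions) arrayed in duplicate with control borders. Baits carried C-terminal DHFR F[1,2]-FLAG tags, tested as wild type and as SH3-deleted versions carrying a flexible Gly/Ser stuffer.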

As for CDC25, the “SH3-dependent PPIs” value is recorded as 3. Same read-out and setting: under RVS167 stands 31.

With YAL005C, the “medrep (log2 median colony size normalized to plate background, PCA score)” value (bait SLA1-3, DHFR-PCA, label = prey, Replicates 4 (2 for YCR009C, YDR388W, YIL033C)) is 5.601. Further, under “bait SLA1-3, label = prey”, the Score worked out at 0.
